# Laboratory results published in ChEMBL document CHEMBL3865791, “Discovery and development of natural product oridonin-inspired anticancer agents” (Eur J Med Chem, 2016).
# What was measured:
# [1] = Anticancer activity against human Hep2 cells measured after 24 hrs by MTT assay; format: functional, cell-based; settings: HEp-2, 24 h
# [2] = Antiproliferative activity against human MCF7/ADR cells measured after 48 hrs by MTT assay; format: functional, cell-based; settings: NCI/ADR-RES
# [3] = Anticancer activity against human MT1 cells measured after 48 hrs by trypan blue assay; format: functional, cell-based; settings: MT1, 48 h
# [4] = Anticancer activity against human PC3 cells measured after 48 hrs by CCK8 assay; format: functional, cell-based; settings: PC-3, 48 h
# [5] = Oral bioavailability in Wistar rat at 20 mg/kg administered as single dose through gavage measured after 48 hrs by HPLC/ESI-MS analysis; format: ADME, organism-based; settings: in vivo
# [6] = Antiproliferative activity against human MDA-MB-231 cells measured after 48 hrs by MTT assay; format: functional, cell-based; settings: MDA-MB-231, 48 h
# [7] = Anticancer activity against human K562 cells measured after 24 hrs by MTT assay; format: functional, cell-based; settings: K562, 24 h
# [8] = Antiproliferative activity against human ER-positive MCF7 cells measured after 48 hrs by MTT assay; format: functional, cell-based; settings: MCF7, 48 h
# [9] = Antitumor activity against human MGC803 cells xenografted in ICR mouse assessed as tumor growth inhibition at 40 mg/kg/day, ip for 25 consecutive days relative to control; format: functional; settings: MGC-803, ip, read-out: TGI
# [10] = Antiproliferative activity against human K562 cells after 72 hrs by MTT assay; format: functional, cell-based; settings: K562, 72 h
# [11] = Anticancer activity against human MT2 cells measured after 48 hrs by trypan blue assay; format: functional, cell-based; settings: MT2, 48 h
# [12] = Anticancer activity against human RPMI8226 cells measured after 48 hrs by trypan blue assay; format: functional, cell-based; settings: RPMI-8226, 48 h
# [13] = Anticancer activity against human SW480 cells measured after 24 hrs by MTT assay; format: functional, cell-based; settings: SW480, 24 h
# [14] = Anticancer activity against human Kasumi-1 cells measured after 48 hrs by CCK8 assay; format: functional, cell-based; settings: Kasumi 1, 48 h
# [15] = Anticancer activity against human K562/ADR cells measured after 24 hrs by MTT assay; format: functional, cell-based
# [16] = Antiproliferative activity against human MDA-MB-231 cells; format: functional, cell-based
# [17] = Antitumor activity against H22 cells xenografted in ICR mouse assessed as tumor growth inhibition at 20 mg/kg/day, ip administered for 4 consecutive days relative to control; format: functional; settings: read-out: TGI
# [18] = Antiproliferative activity against human […] cells after 72 hrs by MTT assay; format: functional, cell-based
# [19] = Antiproliferative activity against human MCF7 cells; format: functional, cell-based
# [20] = Antiproliferative activity against human ER-triple negative MDA-MB-468 cells measured after 48 hrs by MTT assay; format: functional, cell-based; settings: MDA-MB-468, 48 h
# [21] = Anticancer activity against human LX2 cells measured after 48 hrs by alamar blue assay; format: functional, cell-based; settings: LX-2, 48 h
# [22] = Anticancer activity against AML cells isolated from AML-ETO9a leukemia mouse measured after 48 hrs by CCK8 assay; format: functional, cell-based
# [23] = Antiproliferative activity against human CaEs17 cells after 72 hrs by MTT assay; format: functional, cell-based; settings: CaEs17, 72 h
# [24] = Antiproliferative activity against human MGC803 cells after 72 hrs by MTT assay; format: functional, cell-based; settings: MGC-803, 72 h
# [25] = Anticancer activity against human LNCAP cells measured after 48 hrs by CCK8 assay; format: functional, cell-based
# [26] = Anticancer activity against human Jurkat cells measured after 48 hrs by trypan blue assay; format: functional, cell-based
# [27] = Anticancer activity against human SW620 cells measured after 24 hrs by MTT assay; format: functional, cell-based; settings: SW-620, 24 h
# [28] = Anticancer activity against human U266 cells measured after 48 hrs by trypan blue assay; format: functional, cell-based; settings: U-266, 48 h
# [29] = Oral bioavailability in Wistar rat at 10 mg/kg, ip administered as single dose measured after 36 hrs by HPLC/ESI-MS analysis; format: ADME, organism-based; settings: in vivo, intraperitoneal
# [30] = Antiproliferative activity against human […] cells after 24 hrs by MTT assay; format: functional, cell-based
# [31] = Anticancer activity against rat HSC-T6 cells measured after 48 hrs by alamar blue assay; format: functional, cell-based; settings: HSC-T6, 48 h
structure (smiles),measurement,setting,value
C=C1C(=O)[C@]23[C@H](O)[C@H]1CC[C@H]2[C@@]12CO[C@]3(O)[C@@H](O)[C@@H]1C(C)(C)CC[C@@H]2O [ORIDONIN],EC50,[1],37.1 µM
same,EC50,[2],34.8 µM
same,EC50,[3],1.2 to 2.7 µM
same,EC50,[4],25 µM
same,bioavailability,[5],4.3%
same,EC50,[6],28 to 29.4 µM
same,EC50,[7],14.6 µM
same,EC50,[8],4.4 µM
same,inhibition in vivo at 40 mg/kg/day,[9],37.3%
same,EC50,[10],4.76 µM
same,EC50,[11],1.2 to 2.7 µM
same,EC50,[12],1.2 to 2.7 µM
same,EC50,[13],20.8 to 37 µM
same,EC50,[14],1.33 µM
same,EC50,[15],< 40 µM
same,EC50,[16],29.4 µM
same,inhibition in vivo at 20 mg/kg/day,[17],42.7%
same,EC50,[18],7.48 µM
same,EC50,[19],6.6 µM
same,EC50,[20],5.3 µM
same,EC50,[21],7 µM
same,EC50,[22],2.5 µM
same,EC50,[23],11 µM
same,EC50,[24],5.69 µM
same,EC50,[25],25 µM
same,EC50,[26],1.2 to 2.7 µM
same,EC50,[27],20.8 to 37 µM
same,EC50,[28],1.2 to 2.7 µM
same,bioavailability,[29],12.6%
same,EC50,[30],29.8 µM
same,EC50,[31],7 µM
